Measured values published in patent US20080269233A1, “Piperidinoyl-Pyrrolidine and Piperidinoyl-Piperidine Compounds” (priority 2006, published 2008).

Experiments:
[1] = target: MC4 receptor (Homo sapiens, UniProt P32245); test: MC4 receptor functional potency (EC50), Protocol E of WO 2005/077935; format: cell-based; conditions: read-out: functional potency at the MC4 receptor expressed as an EC50
Experimental: MC5 and MC4 activity was determined as described by assay protocols D and E, respectively, in US2005/0176772 (pages 28-30).

[2] = test system: men with psychogenic and organic ED; conditions: cited from earlier work

Chain of MC4 receptor (P32245 whole entry): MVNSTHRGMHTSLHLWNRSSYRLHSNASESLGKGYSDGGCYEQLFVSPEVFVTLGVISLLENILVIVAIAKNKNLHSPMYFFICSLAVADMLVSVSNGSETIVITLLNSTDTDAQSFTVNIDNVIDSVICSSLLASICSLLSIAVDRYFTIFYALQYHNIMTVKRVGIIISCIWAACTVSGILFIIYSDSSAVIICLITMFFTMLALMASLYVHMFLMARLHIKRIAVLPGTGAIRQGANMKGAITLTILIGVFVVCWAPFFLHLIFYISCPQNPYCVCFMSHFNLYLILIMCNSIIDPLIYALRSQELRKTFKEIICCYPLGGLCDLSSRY

Row | EC50 [1] [nM] | Compound | increased sexual desire reported (share of doses) ([2]; 13/19 doses, questionnaire, P<0.01 vs placebo) [%] | subjects with severe nausea ([2]; dose of 0.025 mg/kg) [%] | penile erection (number of men) ([2]; in the absence of sexual stimulation, men with psychogenic and organic ED) | mean duration of Rigiscan tip rigidity >80% ([2]; penile rigidity monitored for 6 hours using RigiScan) [min]
1 | 1.5 | CO[C@H]1CN(C(=O)[C@@H]2CN(c3cccnn3)C[C@H]2c2ccc(F)cc2F)CC[C@]1(OC)c1ccccc1 [Example 8, 3-[(3R,4S)-3-(2,4-difluorophenyl)-4-{[(3S,4S)-3,4-dimethoxy-4-phenylpiperidin-1-yl]carbonyl}pyrrolidin-1-yl]pyridazine] |  |  |  | 
2 | 44 | CCO[C@@H]1CN(C(=O)[C@@H]2CN(c3cccnn3)C[C@H]2c2ccc(F)cc2F)CC[C@@]1(O)c1ccccc1 [Example 13, (3R,4R)-1-{[(3S,4R)-4-(2,4-difluorophenyl)-1-pyridazin-3-ylpyrrolidin-3-yl]carbonyl}-3-ethoxy-4-phenylpiperidin-4-ol] |  |  |  | 
3 | 11.5 | CO[C@H]1CN(C(=O)[C@@H]2CN(c3cccnn3)C[C@H]2c2ccc(F)cc2F)CC[C@]1(OC)c1ccc(F)cc1 [Example 15, 3-[(3R,4S)-3-(2,4-difluorophenyl)-4-{[(3S,4S)-4-(4-fluorophenyl)-3,4-dimethoxypiperidin-1-yl]carbonyl}pyrrolidin-1-yl]pyridazine] |  |  |  | 
4 |  | Melanotan II | 68 | 12.9 | 17 of 20 | 41
